Results taken from publication PMC6452685, “Lysyl-tRNA synthetase as a drug target in malaria and cryptosporidiosis” (Proceedings of the National Academy of Sciences of the …, 2019).
Read-outs that look alike come from different tables or passages of the source.

Experiments:
PfKRS1 = PfKRS1 (Plasmodium falciparum, UniProt Q8IDJ8); assay: PfKRS1 SAR assay, luciferase ATP consumption (Kinase-Glo); assay type: biochemical; parameters: recombinant PfKRS1 (77–583 and 80–583); 6xHis (N); made in house; host or cells: E. coli Rosetta BL21(DE3), vector pAVA0421; settings: for IC50: Kinase-Glo assay
Experimental: We produced recombinant PfKRS1 (77–583 and 80–583), CpKRS (46-end), and HsKRS (full-length) proteins and developed biochemical assays based on the luciferase ATP consumption assay (Kinase-Glo; Promega) ([16]), which was suitable for the high-throughput screening, and the pyrophosphate generation assay (EnzChek) ([17]) format for kinetic characterization of the enzymes. The activities of recombinant enzymes were analyzed by monitoring only the first stage of the aminoacylation reaction. This reaction is suitable for high-throughput screening campaigns and makes the reaction more amenable for steady-state kinetic studies. By using the EnzChek assay, which monitors the production of pyrophosphate (when coupled with pyrophosphatase), Km values were obtained for PfKRS1, CpKRS, and HsKRS for ATP and L-lysine (Table 1 and SI Appendix, Fig. S1 and Table S1). […] This may be due to structural differences (see below) between the active sites of the parasite and human enzymes. […]
2.7 PfKR S1, CpKRS and HsKR S S AR Ass ay Usin g L ucife r ase ATP C onsumption ( Kinase Glo ®) Inhi bi ti on of KRS acti vity by cl adospori n and other compou nds was assayed i n t he buffered me di um.
Each as s ay w el l was compos ed of b uffer (as des cri bed i n Ta bl e S3), 10 µM l ysi ne and ei ther 8.1 nM PfKRS1, 8.1 nM CpKRS or 6.6 nM HsKRS. […] The react i on w a s initiated by the addition of 2 µM ATP. The plate was incubated with shaking at 90 rpm and 30°C for 120 mi n. […] Maximum and minimum signal controls were included in each reaction plate. […] Analysis and calculation of inhibitors IC50 values were performed using Graphpad® Prism software (GraphPad S oftware, San Diego, CA). […]

[1] = system: Nanoluciferase-expressing C. parvum; assay: Inhibition of Nanoluciferase expressing C. parvum growth in HCT-8 cells; assay type: cell-based, Cryptosporidium parvum; settings: read-out: Nluc Cp EC50
Experimental: […] ( UW ) Inhibition of C. parvum growth and EC50 det erm i nat i ons w ere perf ormed w i t h a Na nol uci feras e-expressing C. parvum parasi t e i n HC T-8 cel l s. Oocys ts were propag ated i n cal v es (Cryptosporidium Producti on La borato ry, School o f Ani mal and Comparati ve Bi omedi cal Sci ences, Universi ty of Ari zona) and i sol ated from stool s by sucrose suspensi on and cesi um chl ori de gradi ent. HCT-8 cel ls were seeded to a 384-well plate and allowed to grow for 72 h to reach 90-100% confluence at 37 °C in 5% CO2. Oocysts were activated by 10-15 mi n i ncubat i on i n 10% bl each (0. 6% s odi um hy pochl o ri t e) at room temperature and then washed wi th DPBS. 2000 oocysts per wel l were appl ied to 384-well pl at es wi t h RPM I-1640 medi um s up pl ement ed w i th 10% ho rs e s erum and 1% pe ni ci l li n/s t rept omy ci n at the same time as compound addition. The compound and the oocysts were left in place for the full 72 h g row t h t i me. The amount of l uci feras e-induced light emission was determined by lysing the cell monol ayer, addi ng Nan o-Glo® luciferase reagent (Promega, Madison, W I , USA), and readi ng o n a n EnVi s i on M ul t il abe l Pl at e Re ade r (P e rk i n El me r, Wal t ham, M A, USA). C ont rol s i ncl ude d i nfe ct e d w e lls with no addition of inhibitors and the background was taken as wells where no C. parvum was adde d.
The per cent ag e of g row t h versus infected ce lls with no inhibitor was calculated for each concentrati on of BKI an d the hal f maxi mal effecti ve concentrati on (EC50) v al ues were determi ned by a si gmoi dal dose response wi th vari abl e sl ope usi ng GraphPad Pri sm versi on 6.07 (GraphPa d Software, La Jol l a, Cal i forni a, USA). […]

[2] = Cryptosporidium parvum, HCT-8, C. parvum growth in HCT-8 cells

Sequence of PfKRS1 (Q8IDJ8 77-583): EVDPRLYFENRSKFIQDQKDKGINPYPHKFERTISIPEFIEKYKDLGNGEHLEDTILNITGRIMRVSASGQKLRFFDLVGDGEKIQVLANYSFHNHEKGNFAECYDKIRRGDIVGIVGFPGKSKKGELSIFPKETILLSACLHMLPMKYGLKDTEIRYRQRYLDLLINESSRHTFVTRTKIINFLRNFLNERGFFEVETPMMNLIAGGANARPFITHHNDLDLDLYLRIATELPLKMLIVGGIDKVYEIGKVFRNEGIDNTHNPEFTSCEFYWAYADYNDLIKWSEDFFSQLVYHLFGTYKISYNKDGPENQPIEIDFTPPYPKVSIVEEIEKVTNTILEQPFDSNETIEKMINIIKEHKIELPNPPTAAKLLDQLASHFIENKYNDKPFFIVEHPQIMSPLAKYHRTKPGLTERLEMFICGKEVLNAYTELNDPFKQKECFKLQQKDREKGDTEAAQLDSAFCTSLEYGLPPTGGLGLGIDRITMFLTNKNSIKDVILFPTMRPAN

Compound	IC50 (PfKRS1) [nM]	EC50 [1, 2] [nM]	selectivity ratio for HsKRS/PfKRS1 (PfKRS1; in Kinase-Glo) [fold]	EC50 ([1]; C. parvum growth in HCT-8 cells) [nM]
O=C(NCC1(O)CCCCC1)c1cc(=O)c2cc(F)ccc2o1 [Compound 4]	5	140	–	–
O=C(NCC1(O)CCC(F)(F)CC1)c1cc(=O)c2cc(F)ccc2o1 [Compound 5]	15	2500	120	–
O=C(NCC1CCCCC1)c1cc(=O)c2ccccc2o1 [Compound 2]	4	1200	–	–
O=C(NCC1CCCCC1)c1cc(=O)c2cc(F)ccc2o1 [Compound 3]	14	810	–	–
C[C@H]1CCC[C@H](C[C@H]2Cc3cc(O)cc(O)c3C(=O)O2)O1 [Compound 1, cladosporin, reference compound]	4	700	–	670
